Structures can show the parent of a compound that is named as a salt.

As to `COc1ccc(C(=O)Nc2nc3ccc(NS(=O)(=O)O)cc3c(NCc3ccccc3)c2C#N)cc1` (as salt: ammonium) [Example 11, {4-(Benzylamino)-3-cyano-2-[(4-methoxybenzoyl)amino]quinolin-6-yl}sulfamic acid], the melting point was 220 to 222 °C.
To `COc1ccc(C(=O)Nc2nc3ccc(N)cc3c(NCc3ccccc3)c2C#N)cc1` [Example 7, N-[6-amino-4-(benzylamino)-3-cyanoquinolin-2-yl]-4-methoxybenzamide] belongs 228 to 230 °C; to `CNc1ccc2nc(NC(=O)c3ccc(OC)cc3)c(C#N)c(NCc3ccccc3)c2c1` [Example 9, N-{4-(benzylamino)-3-cyano-6-(methylamino)quinolin-2-yl}-4-methoxybenzamide], 237 to 240 °C; to `COc1ccc(C(=O)Nc2nc3ccc(NC=O)cc3c(NCc3cccs3)c2C#N)cc1` [Example 10, N-{3-Cyano-6-(formylamino)-4-[(2-thienylmethyl)amino]quinolin-2-yl]-4-methoxybenzamide], 223 to 226 °C.

One may read the melting point as the temperature of the solid-liquid transition.
